Test [1] has as its system Human cytomegalovirus (HCMV). Nature of the test: Anti-HCMV plaque reduction assay in MRC5 cells. It counts as cell-based. As to conditions: Human betaherpesvirus 5, read-out: IC50, anti-HCMV activity (50% inhibitory concentration). As to the method: Human cytomegalovirus (HCMV) is assayed in monolayers of MRC5 cells (human embryonic lung) in multiwell trays. Activity of compounds is determined in the plaque reduction assay, in which a cell monolayer is infected with a suspension of HCMV. A range of concentrations of the compound to be tested (of known molarity) is then incorporated into the carboxymethyl cellulose overlay. Plaque numbers of each concentration are expressed as percentage of the control and a dose-response curve is drawn. From this curve the 50% inhibitory concentration (IC50) is estimated.

In the next test the test system is T cells (Molt 4). Nature of the test: Inhibition of the growth of T cells (Molt 4). The format is cell-based. As to conditions: Homo sapiens, read-out: I50, growth of Molt 4 cells. As to the method: (§1) The compounds of the invention were tested for inhibition of the growth of T cells (Molt 4) and B cells (IM9) by the method of Averett, D., Journal of Virological Methods, 23, (1989), 263-276.

The test system of the next test is B cells (IM9). Nature of the test: Inhibition of the growth of B cells (IM9). It counts as cell-based. As to conditions: Homo sapiens, IM-9; read-out: I50, growth of IM9 cells. As to the method:
as §1

The test system of test [2] is HBV (HepG2 2.2.15, P5A cell line). Kind of test: Anti-HBV assay: HBV DNA in supernatants of HBV-producing cells, immunoaffinity capture, PCR and hybrid-capture detection. As to conditions: HepG2 2.2.15, P5A cells, compound on days 1, 3, 5, 7. It counts as cell-based, Hepatitis B virus. As to the method:
Anti-HBV activity of compounds of formula (I) and (I-1) was determined with a high-capacity assay for assessing efficacy. Supernatants from growing HBV-producing cells (HepG2 2.2.15, P5A cell line) in 96-well plates are applied to microtiter plate wells which have been coated with a specific monoclonal antibody to HBV surface antigen (HBsAg). Virus particles present in the supernatants bind to the antibody and remain immobilized while other debris is removed by washing. These virus particles are then denatured to release HBV DNA strands which are subsequently amplified by the polymerase chain reaction and detected with a colorimetric hybrid-capture assay. Quantitation is achieved through fitting of a standard curve to dilutions of a cell supernatant with known HBV DNA content. By comparing HBV DNA levels of untreated control cell supernatants with supernatants containing a compound of formula (I) or (I-1), a measure of anti-HBV effectiveness is obtained.
HBV producer cells, 2500 cells/well, were seeded in 96-well culture dishes in RPMI/10% fetal bovine serum/2 mM glutamine (RPMI/10/2:). […] Twenty-five uL HBV standard media dilutions in RPMI/10/2 were added to 2 rows of wells to serve as an internal standard curve for quantitation, and the plates were sealed and incubated at 4° C. overnight. […]
Polymerase chain reaction (Saiki, R. K. et al., Science, 239 (4839) 487-91 (1988)) was carried out on 5uL samples, using a Perkin Elmer PCR kit. […] Primers were chosen from conserved regions in the HBV genome, as determined by alignment of several sequences. […]
PCR products were detected with horse radish peroxidase-labeled oligonucleotide probes (Synthecell Corp., Rockville, Md. 20850), which hybridize to biotinylated strands of denatured PCR products directly in streptavidin-coated microtiter plate wells, using essentially the method of Holodiniy, M. et al., Bio Techniques, 12 (1) 37-39 (1992). […] Quantities of HBV DNA present in the original samples were calculated by comparison with standards. […]

Setting [3] is: Hepatitis B virus, HepG2 2.2.15, read-out: IC50 (median inhibitory concentration, 50 percent decrease in HBV DNA), approximate IC50.

Where two headings read alike, the source gives them in different places.

Consider `OC[C@@H]1C[C@H](n2c(Br)nc3cc(Cl)c(Cl)cc32)[C@@H](O)[C@H]1O` (relative stereo) [Ex. 4, (±)-(1R*,2S*,3S*,5S*)-5-(2-Bromo-5,6-dichloro-1H-benzimidazol-1-yl)-3-(hydroxymethyl)-1,2-cyclopentanediol], for which the IC50 in test [1] was 1.9 µM; in the test on T cells (Molt 4) it was 39 µM; in the test with B cells (IM9), 48 µM.

As for `OC[C@@H]1C[C@@H](O)[C@H](n2c(Br)nc3cc(Cl)c(Cl)cc32)C1` (relative stereo) [Ex. 13, (±)-(1R*,2R*,4S*)-2-(2-Bromo-5,6-dichloro-1H-benzimidazol-1-yl)-4-(hydroxymethyl)cyclo-pentanol], the IC50 was determined as 1 µM in test [1], 32 µM with T cells (Molt 4), 88 µM with B cells (IM9) and 5 µM in test [2] (setting [3]).

Turning to `OC[C@@H]1C[C@H](n2c(Br)nc3cc(Cl)c(Cl)cc32)[C@@H](O)[C@H]1O` [Ex. 69, (1R,2S,3S,5S)-5-(2-Bromo-5,6-dichloro-1H-benzimidazol-1-yl)-3-(hydroxymethyl)-1,2-cyclopentanediol], the IC50 in the test with T cells (Molt 4) was found to be 29 µM; with B cells (IM9) it was 35 µM; in test [2] (setting [3]), 0.72 µM; in test [2] (read-out: IC50 (median inhibitory concentration, 50 percent decrease in HBV DNA), approximate IC50), 1.3 µM.

Values taken from patent publication US5399580A, “Therapeutic nucleosides-uses” (Burroughs Wellcome Co., priority 1993, dated 1995).
